Results on eight compounds are retold here after PubChem BioAssay (NCI).

Holding throughout (experiment): DTP human tumour cell line panel, 48 h
The test system of test [1] is CAKI-1 renal.
In test [2] the test system is TK-10 renal.
The test system of test [3] is U251 CNS.
In test [4] the test system is OVCAR-5 ovarian.
The subject of test [5] is SK-OV-3 ovarian.
For test [6], the system named is UACC-62 melanoma.
Test [7] concerns NCI-H522 lung.
Test [8] has as its system SF-295 CNS.
Test [9] deals with A549 NSCLC.
The test system of test [10] is IGROV1 ovarian.

By GI50 is commonly meant the concentration that inhibits growth by half. In general, TGI refers to the concentration giving total growth inhibition. Higher therefore signals lower sensitivity of the cells.

Structures are written as SMILES.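 Protocol summary: plate cells (96-well), add compound at 5 concentrations, incubate 48 h, interpolate endpoints linearly. GI50 = concentration required for 50% inhibition of growth. TGI marks complete inhibition of growth.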

In the case of `Cc1ncc(C(=O)Nc2ccc(CN3CCN(C)CC3)c(C(F)(F)F)c2)cc1C#Cc1cnc(N)cc1C#N`, the GI50 in test [1] was 154 nM; in [2], 1700 nM; in test [3], 1630 nM; in test [4] it was 1660 nM; in test [5] it was 401 nM; in test [6] it was 51.8 nM. The GI50 in [7] was 405 nM; in test [8], 1880 nM; in test [9], 1260 nM; in test [10] it was 103 nM. Further, the TGI came out at 1380 nM in test [1]; 3.83 µM in test [2]; 4.02 µM in [3]; 4 µM in test [4]; 1.8 µM in test [5]; 645 nM in test [6]. The total growth inhibition concentration (TGI) in test [7] was 3.24 µM; in test [8], 3.98 µM; in [9] it was 3.93 µM; in test [10] it was 2.06 µM.

Consider `CCOC(=O)c1c2c(n3ccccc13)C(=O)c1ncccc1C2=O`, for which the GI50 is 301 nM in test [1]; 354 nM in test [2]; 32.9 nM in test [3]; 1800 nM in test [4]; 68.3 nM in test [5]; 33.7 nM in test [6]. The GI50 was 419 nM in test [7], 1310 nM in test [8], 323 nM in [9] and 98.7 nM in [10]. Besides, the total growth inhibition concentration (TGI) came out at 28500 nM in [1]; 20.2 µM in test [2]; 1.96 µM in test [3]; 27.5 µM in test [4]; 22.9 µM in test [5]; 1390 nM in test [6]. The TGI is 3.72 µM in test [7], 11.3 µM in test [8], 8.01 µM in test [9] and 42.7 µM in test [10].

Consider `CC(C)CC(NC(=O)OC(C)(C)C)C(=O)Nc1ccc(Nc2nc(F)nc(-c3c4ccccc4cn3C)n2)cc1` (stereo not given), for which the TGI in [1] was more than 100000 nM; in test [2], more than 100 µM; in test [3], more than 46.4 µM; in test [4], more than 100 µM; in test [5], more than 100 µM; in test [6], more than 100000 nM. The TGI in [7], in test [8], in test [9] and in [10] was more than 100 µM each time.

Take `N#C/C(=C\c1ccc(Br)cc1)n1nnc2ccc(F)cc21`: the GI50 was 293 nM in test [1]; 2260 nM in test [2]; 1640 nM in [3]; 1870 nM in test [4]; 4850 nM in [5]; 713 nM in [6]. In addition, the GI50 is 227 nM in test [7], 2110 nM in [8], 2010 nM in [9] and 569 nM in test [10]. Also, the TGI is 1350 nM in [1]; 5.61 µM in [2]; 3.34 µM in test [3]; 3.99 µM in test [4]; more than 100 µM in [5]; 2710 nM in test [6]. Besides, the TGI amounted to 0.858 µM in test [7], 5.07 µM in test [8], 72.4 µM in test [9] and 2.25 µM in [10].

Regarding `Cc1cnc(C(=O)NNc2nc3sc4c(c3c(=O)n2C)C(C)CCC4)cn1` (stereo not given), the GI50 in test [1] was 333 nM; in test [2] it was 608 nM; in [3], 228 nM; in test [4] it was 491 nM; in test [5], 628 nM; in [6] it was 346 nM. The GI50 was 328 nM in test [7], 384 nM in test [8], 371 nM in test [9] and 292 nM in [10]. Moreover, the TGI in [1] amounted to 2490 nM; in test [2], 11.9 µM; in test [3], 2.32 µM; in [4], 7.4 µM; in test [5], 5.01 µM; in test [6], 2240 nM. The TGI worked out at 4.62 µM in test [7], 3.91 µM in [8], 4.69 µM in [9] and 2.8 µM in test [10].

For the compound `Cc1cnc(C(=O)Nc2nc3ccc(S(=O)(=O)Nc4ccc(C5(C(F)(F)F)CC5)cc4)cc3[nH]2)cn1`, the GI50 is 360 nM in test [1]; 1480 nM in test [2]; 570 nM in test [3]; 785 nM in test [4]; 1570 nM in [5]; 372 nM in test [6]. For the same compound, the GI50 is 251 nM in [7], 237 nM in [8], 570 nM in test [9] and 606 nM in test [10]. Also, the TGI in test [1] came to 15700 nM; in [2], 12 µM; in [3], 5.4 µM; in test [4], 10.9 µM; in test [5], 22.7 µM; in [6], 6990 nM. In addition, the TGI in test [7] stood at 11.2 µM; in [8] it was 3.27 µM; in test [9], 9.66 µM; in test [10], 5.02 µM.

`CN(C)c1ccc(/C=C/c2cc[n+](C)c(/C=C/c3ccc(N(C)C)cc3)c2)cc1`: the GI50 was 1420 nM in [1]; 374 nM in [2]; 286 nM in [3]; 401 nM in test [4]; 270 nM in test [5]; 357 nM in test [6]. The GI50 in [7] was 267 nM; in test [8], 270 nM; in test [9], 334 nM; in test [10], 821 nM. Further, the TGI was 7400 nM in [1]; 2.86 µM in test [2]; 1.41 µM in [3]; 14.2 µM in [4]; 1.39 µM in [5]; 1680 nM in [6]. Besides, the TGI in test [7] is 1.72 µM; in [8], 1.32 µM; in test [9], 10.6 µM; in test [10], 3.43 µM.

As for `C=C1CC2(OC1=O)C(=O)Nc1ccccc12` (stereo not given), the GI50 was 1290 nM in [1]; 1800 nM in test [2]; 13100 nM in [3]; 5830 nM in [4]; 26700 nM in test [5]; 2230 nM in [6]. For the same compound, the GI50 in test [7] was 542 nM; in test [8], 28900 nM; in test [9], 12900 nM; in test [10] it was 2360 nM. Moreover, the TGI in [1] was 2650 nM; in test [2] it was 4.09 µM; in test [3], 30.5 µM; in test [4], 19.4 µM; in [5] it was more than 100 µM; in test [6] it was 6760 nM. In addition, the TGI in [7] was 2.03 µM; in test [8] it was more than 100 µM; in test [9], 34.3 µM; in [10], 7.72 µM.
